The results in this text go back to the RepoRT retention time repository (doi:10.1093/pcp/pcn183).

The structures appear in SMILES notation. Where a name gives a salt, the structure may show the parent alone.

A short description of this data set: RP, Waters ACQUITY UPLC BEH C18, 38 °C, 0.24 mL/min; A: water + 0.1% formic acid, pH 3; B: acetonitrile + 0.1% formic acid, pH 3; gradient (min/%B) 0/0 0.25/0 0.4/9 0.8/17 1.9/100 2.1/100 2.11/0 3/0. To be noted: stereoisomer not certain.
Turning to `C[N+](C)(C)CC(=O)[O-]` [Betaine], the LC retention time turned out to be 0.17 min.
For `CC=C(C)C(=O)NCC(=O)O` [N-Tigloylglycine], the LC retention time came to 1.18 min.
Next, `Nc1ccn(C2OC(CO)C(O)C2O)c(=O)n1` (stereo not given) [Cytidine,cell culture tested]: 0.34 min; `NC(CO)CC(=O)O` [L-beta-homoserine [(R)-3-Amino-4-hydroxy-butyric acid (+)]]: 0.16 min; `CN1C=CC=CC1=CN=O` [Pyridine-2-aldoxime methochloride]: 0.25 min.
Next, `CN1CC(=O)NC1=N` [Creatinine,anhydrous]: 0.19 min; `N[C@@H](CO)C(=O)O` [L-Serine]: 0.16 min; `NCCCCNCCCN` [Spermidine]: 0.14 min.
On to `O=C(CCc1ccc(O)cc1)c1c(O)cc(O)cc1OC1OC(CO)C(O)C(O)C1O` (stereo not given) [Phloridzin], for which the LC retention time amounted to 1.49 min.
As to `Nc1ncn[nH]1` [3-Amino-1,2,4-triazole], the LC retention time stood at 0.18 min.
As for `CC(CCC(=O)O)C(=O)O` (stereo not given) [2-Methylglutaric Acid], the figure is 1.16 min.
As for `CC1OC(Oc2c(-c3ccc(O)c(O)c3)oc3cc(O)cc(O)c3c2=O)C(O)C(O)C1O` (stereo not given) [Quercitrin], the figure is 1.46 min.
As for `CC(C)=CCNc1ncnc2nc[nH]c12` [6-(gamma,gamma-Dimethylallylamino)purine], the figure is 1.32 min; as for `Cc1cn(C2CC(O)C(CO)O2)c(=O)[nH]c1=O` (stereo not given) [Thymidine], 1.11 min; as for `N[C@@H](Cc1ccc(O)c(O)c1)C(=O)O` [3,4-Dihydroxy-L-phenylalanine], 0.4 min.
With `CCCCCCCCCCCCCCCC(O)C(CO)NC(=O)CCCCCCC` [N-Octanoylsphinganine,D-erythro], the LC retention time came out at 0.56 min.
As for `CC(C)C(N)CC(=O)O` [L-beta-homovaline-HCl], the figure is 0.55 min.
As for `NCCCC(=O)O` [gamma-Amino-n-butyric acid], the figure is 0.17 min; as for `COc1cc(-c2oc3cc(O)cc(O)c3c(=O)c2O)ccc1O` [Isorhamnetin], 1.7 min; as for `Nc1ccc(C(=O)NCC(=O)O)cc1` [4-Aminohippurate], 0.93 min.
Next, `OCC1OC(Oc2cc3c(OC4OC(CO)C(O)C(O)C4O)cc(O)cc3[o+]c2-c2ccc(O)c(O)c2)C(O)C(O)C1O` (stereo not given) [cyanidin-3,5-di-O-glucoside chloride]: 1.11 min; `CCCC(O)C(=O)O` (racemic) [DL-2-Hydroxyvaleric acid sodium salt hydrate]: 1.14 min; `CC(CO)CCNc1ncnc2nc[nH]c12` (racemic) [DL-Dihydrozeatin]: 1.11 min.
`O=c1ccn(C2OC(COP(=O)(O)OP(=O)(O)OC3OCC(O)C(O)C3O)C(O)C2O)c(=O)[nH]1` (stereo not given) [UDP-xylose]: the LC retention time turned out to be 0.21 min.
As for `CN(C)C=O` [N,N-Dimethylformamide(DMF)], the figure is 0.51 min; as for `O=C1CC(c2ccc(O)c(O)c2)Oc2cc(OC3OC(CO)C(O)C(O)C3O)cc(O)c21` (stereo not given) [eriodictyol-7-O-glucoside], 1.41 min.
As for `Nc1ccc(O)cc1` [4-Aminophenol hydrochloride], the figure is 0.2 min; as for `CC([NH3+])C(=O)NC(C)C(=O)[O-]` [D-Ala-D-ala], 0.19 min; as for `Nc1nc2c(ncn2C2CC(O)C(COP(=O)(O)O)O2)c(=O)[nH]1` (stereo not given) [2'-deoxyguanosine 5'-monophosphate sodium salt hydrate], 0.72 min.
Turning to `O=C(O)c1ccc(O)c(O)c1` [3,4-Dihydroxybenzoic acid], the LC retention time stood at 1.14 min.
Next, `NCCc1c[nH]c2ccc(O)cc12` [Serotonin hydrochloride]: 1.08 min.
Next, `O=C(O)C(O)Cc1ccccc1` (racemic) [DL-3-Phenyllactic acid]: 1.42 min; `COc1ccc(-c2coc3cc(OC4OC(CO)C(O)C(O)C4O)cc(O)c3c2=O)cc1` (stereo not given) [Sissotrin]: 1.61 min.
Next, `O=c1cc(-c2ccc(O)cc2)oc2c(C3OC(CO)C(O)C(O)C3O)c(O)cc(O)c12` (stereo not given) [Vitexin]: 1.39 min; `OCCN(CCO)CCO` [2,2',2''-Nitrilotriethanol]: 0.17 min.
Regarding `CC(C)CC(O)C(=O)O` (stereo not given) [2-Hydroxyisocaproic acid], the LC retention time was determined as 1.34 min.
Next, `OCC1OC(Oc2cc(O)cc(C=Cc3ccc(O)c(O)c3)c2)C(O)C(O)C1O` (stereo not given) [E-3,4,5'-trihydroxy-3'-glucopyranosylstilbene]: 1.33 min; `O=c1c(O[C@@H]2O[C@H](CO)[C@@H](O)[C@H](O)[C@H]2O)c(-c2ccc(O[C@@H]3O[C@H](CO)[C@@H](O)[C@H](O)[C@H]3O)c(O)c2)oc2cc(O)cc(O)c12` [Quercetin-3,4'-O-di-beta-glucopyranoside]: 1.32 min.
As for `O=P(O)(O)O[C@H]1O[C@H](CO)[C@H](O)[C@H](O)[C@H]1O` [alpha-D-Galactose-1-phosphate dipotassium salt pentahydrate], the figure is 0.16 min.
Next, `Cc1ncc(C[n+]2csc(CCOP(=O)(O)O)c2C)c(N)n1` [Thiamine monophosphate chloride dihydrate]: 0.19 min.
With `NCCC(=O)NC(Cc1cnc[nH]1)C(=O)O` [L-Carnosine], the LC retention time turned out to be 0.16 min.
As for `NC(=O)CCCCC1CCSS1` (racemic) [DL-Thioctamide], the figure is 1.57 min; as for `COc1cc(-c2oc3cc(O)cc(O)c3c(=O)c2OC2OC(CO)C(O)C(O)C2O)ccc1O` (stereo not given) [isorhamnetin-3-O-glucoside], 1.45 min; as for `CCC[C@H](N)C(=O)O` [L-Norvaline], 0.25 min.
Next, `NCCCNCCCCNCCCN` [Spermine]: 0.14 min.
Next, `C[n+]1cccc(C(=O)[O-])c1` [Trigonelline hydrochloride]: 0.19 min.
As for `OCC(O)C(O)C(O)CO` (stereo not given), the LC retention time stood at 0.17 min.
As for `O=c1[nH]c(=O)c2ncn(C3OC(COP(=O)(O)O)C(O)C3O)c2[nH]1` (stereo not given), the figure is 0.48 min.
As for `Cc1ncc(CO)c(CO)c1O` [Pyridoxine], the figure is 0.53 min; as for `O=C(O)CCCCCCC(=O)O` [Suberic acid], 1.4 min.
Next, `NC(=O)c1ccc[n+](C2OC(COP(=O)([O-])O)C(O)C2O)c1` (stereo not drawn) [beta-Nicotinamide mononucleotide]: 0.24 min; `C[S+](CCC(N)C(=O)[O-])CC1OC(n2cnc3c(N)ncnc32)C(O)C1O` [S-(5'-Adenosyl)-L-methionine chloride]: 0.19 min.
As to `NCC(=O)O` [Glycine], the LC retention time was 0.16 min.
`O=S(=O)(O)Oc1c[nH]c2ccccc12` [3-Indoxylsulfate potassium salt]: the LC retention time was 1.24 min.
Next, `CCCCCCCCCCCCCC=CC(O)C(N)COC1OC(CO)C(O)C(O)C1O` [D-Glucosyl-beta1-1'-D-erythoro-Sphingosine]: 1.84 min.
As for `N[C@@H](Cc1ccc(O)c(Cl)c1)C(=O)O` [3-Chloro-L-tyrosine hydrochloride], the figure is 1.1 min; as for `O=P(O)(O)OC1C(O)C(O)C(OP(=O)(O)O)C(O)C1O` (stereo not given), 2.13 min.
As for `CC(O)C(=O)SCC(NC(=O)CCC(N)C(=O)O)C(=O)NCC(=O)O` (stereo not given) [S-Lactoylglutathione], the figure is 1.06 min.
In the case of `N[C@@H](CSCC(=O)O)C(=O)O` [S-Carboxymethyl-L-cysteine], the LC retention time is 0.2 min.
Next, `C[C@@H](O)[C@H](N)CC(=O)O` [L-beta-homothreonine]: 0.19 min; `O=c1cc[nH]c(=O)[nH]1` [Uracil]: 0.31 min.
In the case of `NC(N)=NCC(=O)O` [Glycocyamine], the LC retention time came to 0.18 min.
As for `COc1ccccc1C=CC(=O)O` [2-Methoxycinnamic acid], the figure is 1.68 min.
As for `NCCc1c[nH]c2ccccc12` [3-(2-Aminoethyl)indole Hydrochloride], the figure is 1.22 min; as for `Nc1ccccc1C(=O)O` [Anthranilic acid], 1.39 min; as for `C[N+](C)(C)C[C@H](O)CC(=O)[O-]` [L-Carnitine hydrochloride], 0.18 min.
Consider `Nc1ncnc2c1ncn2C1OC(CO)C(O)C1O` (stereo not given) [Adenosine], for which the LC retention time was 1.06 min.
For `O=c1cc(-c2ccc(O)c(O)c2)oc2cc(OC3OC(CO)C(O)C(O)C3O)cc(O)c12` (stereo not given) [luteolin-7-O-glucoside], the LC retention time came out at 1.41 min.
As for `CCCCCCCCCCCCCCCCC` [Heptadecane], the figure is 1.81 min.
As for `COc1ccc(-c2coc3cc(OC4OC(CO)C(O)C(O)C4O)ccc3c2=O)cc1` (stereo not given) [Ononin], the LC retention time was found to be 1.52 min.
As for `COc1cc(/C=C/C(=O)O)ccc1O` [trans-4-Hydroxy-3-methoxycinnamic acid], the figure is 1.44 min.
Next, `C[N+](C)(C)CC=O` [Betaine aldehyde chloride]: 0.16 min.
As for `COc1cc(C=Cc2cc(O)cc(OC3OC(CO)C(O)C(O)C3O)c2)ccc1O` (stereo not given) [E-4,5'-dihydroxy-3-methoxy-3'-glucopyranosylstilbene], the figure is 1.42 min; as for `NC(CCC(=O)NC(CSSCC(NC(=O)CCC(N)C(=O)O)C(=O)NCC(=O)O)C(=O)NCC(=O)O)C(=O)O` (stereo not given) [Glutathione (oxidized form)], 0.95 min; as for `Nc1ccn(C2CC(O)C(CO)O2)c(=O)n1` (stereo not given) [2'-Deoxycytidine], 0.45 min.
